Measurements published in paper PMC6315428, “Quantification of α-Thujone and Its Metabolites in Human Urine after Consumption of a Sage Infusion Using Stable Isotope Dilution Assays” (Toxins, 2018).

Columns and labels:
[1] = recently deduced; cited from earlier work
[2] = Human study: urinary excretion of α-thujone and hydroxythujones after consumption of a sage infusion (SIDA, SPME-GC-MS and LC-MS/MS); format: in vivo, humans; conditions: for detection in urine of the volunteers: after consumption of 575.0 µg α-thujone, hydroxythujones after liberation from glucuronides/sulfates; for Total excretion in human urine: 575 µg α-thujone as sage infusion, urine over 24 h; for maximum concentration in urine: volunteer with the highest dose of 14.3 µg/kg bw, after sage infusion; for minimum degree of glucuronidation/sulfation: human urine, calculated from two samples with free hydroxythujones above LOQ; for time after which no additional excretion was observed: after ingestion of sage infusion, all but test person 2 for 7-OH
Experimental: The protocol of the study was approved by the Ethics Committee of the Faculty of Medicine of the Technische Universität München (1996/07). Written informed consent was obtained from participants before inclusion into the study. Seven healthy, non-smoking volunteers, six Caucasian, participated in the study (3 men and 4 women, mean (±standard deviation [SD]) age 29.7 (±9.21) years, and mean (±SD) body mass index 23.1 (±5.08) kg/m^2). For 24 h prior to the study, the volunteers avoided herbs and spices containing α-thujone for a wash out. A blank urine sample was collected as a control from each volunteer before consumption of the sage infusion. On an empty stomach, the volunteers drank the tea (575 µg α-thujone) within 10 min, and urine was collected at 1, 1.5, 2.5, 3.5 h, and in the time frames of 4.5–6, 6–8, 8–14, 14–24 h after consumption. A defined meal (cheese sandwich) was eaten after 2 h. The samples were stored at 4 °C until preparation for analysis.
The cooled samples were adjusted with HCl to pH 5 and divided into 2 mL aliquots. A solution containing the labeled hydroxythujones (220–430 ng) and β-glucuronidase (5000 units/mL sample; 1 unit liberates […] phenolphthalein from its glucuronide per hour at pH 5.0 at 37 °C) was added, and the mixture stirred at 37 °C for 15 h. Afterwards, the samples were centrifuged (16000 rpm, 4 °C, 15 min) and the supernatant was subjected to solid phase extraction (SPE).
The SPE tubes (ENVI-18, 100 mg, Supelco) were equilibrated with 2 × 1 mL methanol and 2 × 1 mL water. Thereafter, the clear supernatant was loaded on the columns and was slowly passed through without suction. The protein residue was reextracted with water/methanol (95:5, 1 mL), and also loaded on the SPE tubes. The tubes were washed with water/methanol (95:5, 2 × 1 mL) by suction, and then dried carefully. Analytes were slowly eluted with water/acetonitrile (50:50, 500 µL). The extracts were analyzed by LC-MS/MS.
Measurements on the LC-MS/MS were performed using a Shimadzu LC-30A Prominence system (Shimadzu, Kyoto, Japan) interfaced to an LCMS-8050 Triple Quadrupol mass spectrometer (Shimadzu, Kyoto, Japan). A total of 40 µL was injected onto a YMC Pro Pack C4 at 30 °C oven temperature and flow of 0.5 mL/min with water (solvent A) and ACN (solvent B). The gradient was started and held at 5% B for 2 min, raised linearly from 5% B to 30% B during the next 1 min, then raised linearly to 33% within the next 7 min, and to 100% B within the next 1 min. Thereafter, the mobile phase returned to 5% B within 2 min, and the system was equilibrated for 18 min before the next run. The atmospheric pressure chemical ionization (APCI) source was operated in the positive mode under the following conditions: nebulizing gas flow 3 L/min; interface temperature 350 °C; desolvation line temperature 200 °C; drying gas flow 5 L/min. For MS/MS of the hydroxythujones, the mass transitions (m/z precursor ion/ m/z product ion) 151/81 (collision energy = −17 V) and 151/123 (−14 V) for 2-OH, 151/109 (−13 V) and 151/91 (−23 V) for 4-OH, 151/105 (−18 V) and 151/81 (−17 V) for 7-OH, 157/129 (−14 V) and 157/87 (−15 V) for d6-2-OH, […] (−16 V) and 157/91 (−23 V) for d6-4-OH, and 157/129 (−14 V) and 157/99 (−16 V) for d6-7-OH were used.
To determine the hydroxythujone content in urine, calibration functions for 2-OH, 4-OH, and 7-OH were generated with the respective labeled compounds. Calibrators with unlabeled and labeled compounds were prepared in an aqueous solution, in seven different ratios for the unlabeled compounds ranging from 3.1–601.9 µg/mL, while maintaining the labelled compounds constant at concentrations of 450 µg/mL each. The samples were measured by LC-MS/MS. From the relation of area ratios to molar ratios, calibration curves were constructed. […]

[3] = design: method as in PMID 11368559; conditions: mouse urine; cited from earlier work
[4] = tested on: gamma-aminobutyric acid A (GABAA) receptor; design: method as in PMID 10725394; conditions: leads to convulsions and excitations at higher concentrations in animal studies; cited from earlier work
[5] = design: method as in PMID 20425757; conditions: cited from earlier work
[6] = test person 1, dose/bw 14.3 µg/kg, after glucuronide/sulfate deconjugation
[7] = test person 2, dose/bw 11.4 µg/kg, after glucuronide/sulfate deconjugation
[8] = test person 3, dose/bw 8.2 µg/kg, after glucuronide/sulfate deconjugation
[9] = test person 4, dose/bw 6.7 µg/kg, after glucuronide/sulfate deconjugation
[10] = test person 5, dose/bw 8.9 µg/kg, after glucuronide/sulfate deconjugation
[11] = test person 6, dose/bw 4.6 µg/kg, after glucuronide/sulfate deconjugation
[12] = test person 7, dose/bw 7.6 µg/kg, after glucuronide/sulfate deconjugation

Structure (SMILES)	detection in urine of the volunteers [2]	degree of glucuronidation [3]	minimum degree of glucuronidation/sulfation [2]	Total excretion in human urine [2, 6]	Total excretion in human urine [2, 7]	Total excretion in human urine [2, 8]	Total excretion in human urine [2, 9]	Total excretion in human urine [2, 10]	Total excretion in human urine [2, 11]	Total excretion in human urine [2, 12]	time after which no additional excretion was observed ([2]; urine)	also measured
CC(C)[C@]12CC(=O)[C@H](C)[C@H]1C2 [α-thujone]	detectable	–	–	–	–	–	–	–	–	–	–	acceptable daily intake [1]: 110 µg/kg bw/d; detection in urine of the volunteers ([2]; listed as α-Thujone): detectable in a low amount; time after which urine concentration fell under the LODs ([2]; most volunteers): 4.5 h; Total excretion in human urine ([2]; test person 1, dose/bw 14.3 µg/kg): 0.0451 µg; Total excretion in human urine ([2]; test person 2, dose/bw 11.4 µg/kg): 0.008 µg; Total excretion in human urine ([2]; test person 3, dose/bw 8.2 µg/kg): 0.0361 µg; Total excretion in human urine ([2]; test person 4, dose/bw 6.7 µg/kg): 0.0163 µg; Total excretion in human urine ([2]; test person 5, dose/bw 8.9 µg/kg): 0.0107 µg; Total excretion in human urine ([2]; test person 6, dose/bw 4.6 µg/kg): 0.025 µg; Total excretion in human urine ([2]; test person 7, dose/bw 7.6 µg/kg): 0.0351 µg; time within which excreted ([2]; urine, almost all volunteers): ≤ 8 h; maximum concentration in urine [2]: 94.3 ng/L; maximum concentration in urine ([2]; listed as α-Thujone): 94 ng/L
CC(C)[C@@]12C[C@@H]1[C@@H](C)C(=O)[C@@H]2O [2-OH, 2-hydroxythujone]	not being detectable	85%	–	–	–	–	–	–	–	–	–	detection in urine of the volunteers ([2]; listed as 2-Hydroxythujone): not present
CC(C)[C@]12CC(=O)[C@H](C)[C@H]1C2 [thujone]	–	–	–	–	–	–	–	–	–	–	–	effect on GABAA receptor [4]: inhibits
CC12CCC(CC1)C(C)(C)O2 [1,8-cineole]	–	–	–	–	–	–	–	–	–	–	–	dose recovered as the sum of 2-, 9-, 3- and 7-hydroxy-1,8-cineole [5]: 52.5%
C[C@H]1C(=O)C[C@]2(C(C)(C)O)C[C@H]12 [7-OH, 7-hydroxythujone]	detectable	2%	≥ 55%	15.6 µg	20.9 µg	8.6 µg	4.0 µg	7.8 µg	6.9 µg	5.9 µg	7 to 8 h	slower excretion until ([2]; urine, test person 2): 16 h
CC(C)[C@]12CC(=O)[C@@](C)(O)[C@H]1C2 [4-OH, 4-hydroxythujone]	detectable	61%	≥ 66%	13.9 µg	17.9 µg	14.6 µg	11.8 µg	16.5 µg	17.0 µg	26.3 µg	7 to 8 h	–
